# Biological target: T1, Dimer of Gag-Pol polyprotein [489-587] (Human immunodeficiency virus 1, UniProt P12497)
# T1 construct: 489-587
# Test: Protease Inhibition Assay
# Details: pH 5.5; 30 °C
# Protocol: Sensitivity of HIV-1 protease activity to protease inhibitors was determined by a peptide substrate cleavage assay. Protease products were analyzed on a reverse-phase high-pressure liquid chromatograph.
row,SMILES,IC50 [nM]
1,CC(C)(C)OC(=O)N[C@@H](Cc1ccccc1)[C@@H](O)C[C@@H](Cc1ccc(OCCN2CCSCC2)cc1)C(=O)N[C@H]1c2ccccc2C[C@H]1O [N-(2(R)-Hydroxy-1(S)-indanyl)-5(S)-[(tert-butyloxycarbonyl)amino]-4(S)-hydroxy-6-phenyl-2(R)-[[4-[2-(thiamorpholin-4-yl)ethoxy]phenyl]methyl]hexanamide],0.47
2,"CC(C)(C)OC(=O)N[C@@H](Cc1ccccc1)[C@@H](O)C[C@@H](Cc1ccc(OCCO)cc1)C(=O)N[C@H]1c2ccccc2C[C@H]1O [tert-butyl N-[(2S,3S,5R)-3-hydroxy-5-{[(1S,2R)-2-hydroxy-2,3-dihydro-1H-inden-1-yl]carbamoyl}-5-{[4-(2-hydroxyethoxy)phenyl]methyl}-1-phenylpentan-2-yl]carbamate]",0.09
3,"CN1CCN(CCOc2ccc(C[C@H](C[C@H](O)[C@H](Cc3ccccc3)NC(=O)OC(C)(C)C)C(=O)N[C@H]3c4ccccc4C[C@H]3O)cc2)CC1 [tert-butyl N-[(2S,3S,5R)-3-hydroxy-5-{[(1S,2R)-2-hydroxy-2,3-dihydro-1H-inden-1-yl]carbamoyl}-5-({4-[2-(4-methylpiperazin-1-yl)ethoxy]phenyl}methyl)-1-phenylpentan-2-yl]carbamate]",0.2
4,"COCCN(CCOC)CCOc1ccc(C[C@H](C[C@H](O)[C@H](Cc2ccccc2)NC(=O)OC(C)(C)C)C(=O)N[C@H]2c3ccccc3C[C@H]2O)cc1 [N-(2(R)-Hydroxy-1(S)-indanyl)-5(S)-[(tert-butyloxycarbonyl)amino]-4(S)-hydroxy-6-phenyl-2(R)-[[4-[2-[N,N-bis(2-methoxyethyl)amino]ethoxy]phenyl]methyl]hexanamide]",0.9
5,"CC(C)(C)OC(=O)N[C@@H](Cc1ccccc1)[C@@H](O)C[C@@H](Cc1ccc(OCCN2CCCC2)cc1)C(=O)N[C@H]1c2ccccc2C[C@H]1O [tert-butyl N-[(2S,3S,5R)-3-hydroxy-5-{[(1S,2R)-2-hydroxy-2,3-dihydro-1H-inden-1-yl]carbamoyl}-1-phenyl-5-({4-[2-(pyrrolidin-1-yl)ethoxy]phenyl}methyl)pentan-2-yl]carbamate]",1.8
6,"CC(C)(C)OC(=O)N[C@@H](Cc1ccccc1)[C@@H](O)C[C@@H](Cc1ccc(OCCN2CC[S+]([O-])CC2)cc1)C(=O)N[C@H]1c2ccccc2C[C@H]1O [tert-butyl N-[(2S,3S,5R)-3-hydroxy-5-{[(1S,2R)-2-hydroxy-2,3-dihydro-1H-inden-1-yl]carbamoyl}-5-({4-[2-(1-oxo-1,4-thiomorpholin-4-yl)ethoxy]phenyl}methyl)-1-phenylpentan-2-yl]carbamate]",0.07
7,CC(C)(C)OC(=O)N[C@@H](Cc1ccc(O)cc1)[C@@H](O)C[C@@H](Cc1ccc(O)cc1)C(=O)N[C@H]1c2ccccc2C[C@H]1O [N-(2(R)-Hydroxy-1(S)-indanyl)-5(S)-[(tert-butyloxycarbonyl)amino]-4(S)-hydroxy-6-(4-hydroxyphenyl)-2-(R)-[(4-hydroxyphenyl)methyl]hexanamide],0.15
8,CC(C)(C)OC(=O)N[C@@H](Cc1ccc(O)cc1)[C@@H](O)C[C@@H](Cc1ccccc1)C(=O)N[C@H]1c2ccccc2C[C@H]1O [N-(2(R)-Hydroxy-1(S)-indanyl)-5(S)-[(tert-butyloxycarbonyl)amino]-4(S)-hydroxy-6-(4-hydroxyphenyl)-2-(R)-(phenylmethyl)hexanamide],0.35
9,"CC(C)(C)OC(=O)N[C@@H](Cc1ccccc1)[C@@H](O)C[C@@H](Cc1ccc(OCC[N+]2(O)CCOCC2)cc1)C(=O)N[C@H]1c2ccccc2C[C@H]1O [4-(2-{4-[(2R)-2-[(2S,3S)-3-{[(tert-butoxy)carbonyl]amino}-2-hydroxy-4-phenylbutyl]-2-{[(1S,2R)-2-hydroxy-2,3-dihydro-1H-inden-1-yl]carbamoyl}ethyl]phenoxy}ethyl)-4-hydroxymorpholin-4-ium]",0.2
10,CC(C)(C)OC(=O)N[C@@H](Cc1ccccc1)[C@@H](O)C[C@@H](Cc1ccc(OCc2ccccc2)cc1)C(=O)N[C@H]1c2ccccc2C[C@H]1O [N-(2(R)-Hydroxy-1(S)-indany1)-5(S)-[(tert-butyloxycarbonyl)amino]-4(S)-hydroxy-6-phenyl-2(R)-[[4-(benzyloxy)phenyl]methyl]hexanamide],0.18
11,"CC(C)(C)OC(=O)N[C@@H](Cc1ccccc1)[C@@H](O)C[C@@H](Cc1ccc(OCC(=O)O)cc1)C(=O)N[C@H]1c2ccccc2C[C@H]1O [2-{4-[(2R)-2-[(2S,3S)-3-{[(tert-butoxy)carbonyl]amino}-2-hydroxy-4-phenylbutyl]-2-{[(1S,2R)-2-hydroxy-2,3-dihydro-1H-inden-1-yl]carbamoyl}ethyl]phenoxy}acetic acid]",0.04
12,"CC(C)(C)OC(=O)N[C@@H](Cc1ccccc1)[C@@H](O)C[C@@H](Cc1ccc(OCCN2CCCCC2)cc1)C(=O)N[C@H]1c2ccccc2C[C@H]1O [tert-butyl N-[(2S,3S,5R)-3-hydroxy-5-{[(1S,2R)-2-hydroxy-2,3-dihydro-1H-inden-1-yl]carbamoyl}-1-phenyl-5-({4-[2-(piperidin-1-yl)ethoxy]phenyl}methyl)pentan-2-yl]carbamate]",1.6
13,"CC(C)(C)OC(=O)N[C@@H](Cc1ccccc1)[C@@H](O)C[C@@H](Cc1ccc(OCC(=O)N2CCOCC2)cc1)C(=O)N[C@H]1c2ccccc2C[C@H]1O [tert-butyl N-[(2S,3S,5R)-3-hydroxy-5-{[(1S,2R)-2-hydroxy-2,3-dihydro-1H-inden-1-yl]carbamoyl}-5-({4-[2-(morpholin-4-yl)-2-oxoethoxy]phenyl}methyl)-1-phenylpentan-2-yl]carbamate]",0.2
14,"CC(C)(C)OC(=O)N[C@@H](Cc1ccccc1)[C@@H](O)C[C@@H](Cc1ccc(OCCN2CCS(=O)(=O)CC2)cc1)C(=O)N[C@H]1c2ccccc2C[C@H]1O [N-(2(R)-Hydroxy-1(S)-indanyl)-5(S)-[(tert-butyloxycarbonyl)amino]-4(S)-hydroxy-6-phenyl-2(R)-[[4-[2-(1,1-dioxythiamorpholin-4-yl)ethoxy]phenyl]methyl]hexanamide]",0.08
15,"CC(C)(C)OC(=O)N[C@@H](Cc1ccc(OCCN2CCOCC2)cc1)[C@@H](O)C[C@@H](Cc1ccccc1)C(=O)N[C@H]1c2ccccc2C[C@H]1O [tert-butyl N-[(2S,3S,5R)-5-benzyl-3-hydroxy-5-{[(1S,2R)-2-hydroxy-2,3-dihydro-1H-inden-1-yl]carbamoyl}-1-{4-[2-(morpholin-4-yl)ethoxy]phenyl}pentan-2-yl]carbamate]",0.55
16,"CN(C)CCOc1ccc(C[C@H](C[C@H](O)[C@H](Cc2ccccc2)NC(=O)OC(C)(C)C)C(=O)N[C@H]2c3ccccc3C[C@H]2O)cc1 [tert-butyl N-[(2S,3S,5R)-5-({4-[2-(dimethylamino)ethoxy]phenyl}methyl)-3-hydroxy-5-{[(1S,2R)-2-hydroxy-2,3-dihydro-1H-inden-1-yl]carbamoyl}-1-phenylpentan-2-yl]carbamate]",2.1
17,"CC(C)(C)OC(=O)N[C@@H](Cc1ccc(OCCN2CCOCC2)cc1)[C@@H](O)C[C@@H](Cc1ccc(OCCN2CCOCC2)cc1)C(=O)N[C@H]1c2ccccc2C[C@H]1O [tert-butyl N-[(2S,3S,5R)-3-hydroxy-5-{[(1S,2R)-2-hydroxy-2,3-dihydro-1H-inden-1-yl]carbamoyl}-1-{4-[2-(morpholin-4-yl)ethoxy]phenyl}-5-({4-[2-(morpholin-4-yl)ethoxy]phenyl}methyl)pentan-2-yl]carbamate]",1.9
